From patent US20040023909A1, “Process for preventing or reducing undesirable immunological effects to infectious agents in subjects” (Enzo Therapeutics, Inc, priority 1997, published 2004) come the findings set out here.

This assay relates to U937 cells. Description: Delivery of labeled BSA to cells (fluorescent microscope). To be noted: for Cells displaying fluorescense: overnight at 37° C. The format is cell-based. On the procedure: U937 cells were grown to approximately 10^6/ml and centrifuged, washed in growth medium (RPMI), suspended in 3.5 ml of RPMI, and 0.8 ml was placed in each of four 35 mm wells. BSA-BF and BSA-F, each at a concentration of 20 mg/ml, were added to the four wells together with 200 ul of RPMI as follows:
The cell suspensions were incubated overnight at 37° C. One ml of cell suspension was placed in 2.0 ml of RPMI and centrifuged at 1000 rpm for 5 minutes. The supernatants were decanted and the cells were resuspended in 200 ul of RPMI. Samples of each cell suspension were placed on a microscope slide and examined using a fluorescent microscope.

Take “BSA-BF: Bovine Serum Albumin labeled by conjugation with both biotin and fluorescein”: the “Localisation of fluorescense in cells undergoing mitosis” value was “bright fluorescense that was confined to the nuclei”. In addition, the Cells displaying fluorescense entry (20 ul of 20 mg/ml) is recorded as “Approximately 40%”. Where the note is “50 ul of 20 mg/ml”, the Cells displaying fluorescense entry was “Approximately 40%”.

Turning to “BSA-F: Bovine Serum Albumin labeled with fluourescein alone [reference compound]”, the Cells displaying fluorescense was less than 5% (20 ul of 20 mg/ml) and less than 5% (50 ul of 20 mg/ml).
